These results are taken from US5705649A, “Protein staining compositions and methods” (Promega Corporation, priority 1995, dated 1998).

The subject of test [1] is Promega Mid-Range Molecular Weight Standards. The test can be described thus: Post-electrophoretic detection of protein using NBODY derivatives. To be noted: crude dye solution in 5% acetic acid, 20% ethanol, one hour. The procedure:
Promega Mid-Range Molecular Weight Standards were diluted and heated as described in Example 27 to produce solutions containing 125, 25, 5 and 1 ng of protein per band in 10 microliters of solution. A 10% Tris Glycine, precast polyacrylamid gel from Novex Corp. (San Diego, Calif., USA, Cat. No. EC 6075.) was loaded with 10 microliters of the just described, diluted molecular weight standard solutions in lanes so that two lanes, each with the same diluted standard solution, were separated by a blank lane. The gel was developed using conditions recommended by the manufacturer and following development, the gel was cut in the blank lane. The segments were placed in 50 ml of 5% acetic acid, 20% ethanol. Six hundred microliters of the NBODY-C12 reaction mixture from Example 40 was added to the solution with one of the segments of a pair (of lanes with the same protein molecular weight standard solution) and three hundred microliters of the NBODY-C16 reaction mixture from Example 40 was added to the solution with the other segment of the same pair. After one hour of incubation, the gel segments were photographed on a transilluminator as described in example 27. Protein bands were detected in the lanes containing the 125 and 25 ng of protein per band using this method and the crude dye solutions from Example 40.

Test [2] concerns Promega Mid-Range Molecular Weight Markers. In words: Sensitive post-electrophoretic detection of protein using purified NBODY dye. The procedure:
A 12% SDS-PAGE gel was prepared as described in Example 27 and was loaded with dilute Promega Mid-Range Molecular Weight Markers (diluted and heated as in Example 27) to produce lanes which contained 100, 80, 60, 40, 20, 10 and 5 ng of protein per band. The gel was run in a BioRad Miniprotean II gel system at 50V for 1.5 hr. then 125V until the tracking dye reached the bottom of the gel. After the dye reached the bottom of the gel, the gel was removed from the apparatus and placed in 50 ml of 5% acetic acid, 20% ethanol.
The NBODY dye prepared as in Example 40 with n-dodecyl amine was purified by applying 2 ml of the NBODY-C12 reaction mixture from Example 40 3cm from one edge of a 25×25cm silica gel plate (Sigma Chemical Co., St. Louis, […]., USA). The plate was developed using a 6:1 ratio of tolulene:ethyl acetate. […]
After 30 minutes in the 5% acetic acid, 20 % ethanol, the gel was removed from that solution and replaced with a solution containing the purified NBODY-C12 stain with the following composition: one ml of purified NBODY-C12 solution was placed in 50 ml of 35% ethanol, 5% acetic acid. […] After one hour in the water solution, the gel was scanned on a Molecular Dynamics Fluoroimager (Molecular Dynamics, Sunnyvale, Calif.), which excites fluorescence with laser light of 483 nm wavelength.

Test [3] concerns Promega Mid-Range Molecular Weight Standards. The test can be described thus: Detection of proteins during SDS-PAGE with Acid Blue 25 dyes. As to conditions: 0.01% (w/v) in cathode buffer (Example 23).
Excerpt: Ten μl of each solution was loaded into lanes of the three gels, and they were placed into three separate Bio-Rad Miniprotean II gel apparati (Bio-Rad, Richmond, Calif., USA) with the cathode solutions containing 1.0, 0.75, or 0.5% (v/v) of the derivatized Acid Blue 25 preparation (unpurified). The samples were then fractionated within the gels by application of 15 mA of current per gel.

The structures appear in SMILES notation.

`CCCCCCCCCCCCNC(=O)CCCCCNc1ccc([N+](=O)[O-])c2nonc12` [NBODY-C12]: the “lowest protein per band detected” value in test [1] came to 25 ng. The “visibility of protein bands” value in test [2] (lanes of 100 to 5 ng per band) was “Protein bands were seen for all of the protein species in the lanes containing all protein concentrations”. The detection limit result in test [2] (purified dye in 35% ethanol, 5% acetic acid, one hour, water one hour, Fluoroimager 483 nm) is on record as “lower than 5 ng”.
For the compound `Nc1c(S(=O)(=O)O)cc(Nc2ccccc2)c2c1C(=O)c1ccccc1C2=O` [unmodified Acid Blue 25], the “visibility of protein bands during electrophoresis” value in test [3] is recorded as “no protein bands were seen”.
